According to paper PMC7037393, “Synthesis, Structural, and Cytotoxic Properties of New Water-Soluble Copper(II) Complexes Based on 2,9-Dimethyl-1,10-Phenanthroline and Their One Derivative Containing 1,3,5-Triaza-7-Phosphaadamantane-7-Oxide” (Molecules, 2020):
Like-named read-outs stand apart in the source and are kept apart here.

Assays:
apo-Tf = conditions: cited from earlier work
A549 or HeLa lines = conditions: cited from earlier work
[1] = test system: normal cell lines like MRC5, HEK293T, or HaCat; conditions: cited from earlier work
A549 cell line = conditions: read-out: IC50 value for A549 cell line; cited from earlier work
[2] = test system: LoVo (human colorectal adenocarcinoma); parameters: method as in earlier work; conditions: cited from earlier work
NHDF cells [3] = test system: NHDF cells; parameters: method as in PMID 31237306; conditions: cited from earlier work
[4] = test system: A549 (human lung carcinoma); parameters: method as in PMID 31237306; conditions: cited from earlier work
[5] = test system: MCF7 (human breast adenocarcinoma); parameters: method as in PMID 31237306; conditions: cited from earlier work
[6] = test system: HeLa (human cervix carcinoma); parameters: method as in PMID 31237306; conditions: cited from earlier work
[7] = test system: MCF7 (human breast adenocarcinoma); test: Cytotoxicity on MCF7 cells, quantitative suspension test according to EN 14476; format: cell-based; conditions: observed 4 days, aqua media
Protocol: (§1) Normal human dermal fibroblasts (NHDF) (PromoCell, C-12302) were used as normal cells and LoVo (human colorectal adenocarcinoma, ATCC® CCL-229™), A549 (human lung carcinoma, ATCC, No. CCL-185 TM), MCF-7 (human breast adenocarcinoma, ATCC, No. HTB-22^TM) and HeLa (human cervix carcinoma, ATCC, No. CCL-2 TM) were used as cancer cells. They were cultured in DMEM, DMEM–F12 or EMEM (Lonza, CA, USA). Media were supplemented with 10% FBS (Biological Industries, Kibbutz Beit-Haemek, Israel), 2 mM L-glutamine (Biological Industries, Israel), 100 U/mL of penicillin and 100 µg/mL of streptomycin (Sigma, Neustadt an der Weinstrasse, Germany).
(§2) The 100 μL of suspension of NHDF, A549, HeLa, LoVo, and MCF7 cells at a density of 4 × 10^4 cells mL^−1 were incubated in a 96-well polystyrene plate (NUNC, Denmark) for 24 h. Product test solutions were prepared in DMEM, DMEM–F12, or EMEM supplemented with additional 2% FBS and 2 mM L-glutamine. Solutions of the reagents at concentrations from 460 (for 1), 454 (2), […] (3), 1242 (Cu(NO3)2), 1732 (PTA=O), and 1440 µM (dmphen) to 4.60 × 10^−6, 4.54 × 10^−6, 4.69 × 10^−6, 1.24 × 10^−5, 1.73 × 10^−5, and 1.44 × 10^−5 µM, respectively, were prepared and transferred (100 μL) into cell culture units (wells of microtiter plates) containing monolayer of cells. Eight units were inoculated with each dilution. Plates were incubated in 37 °C, 5% CO2 and observed daily for 4 days for the development of cytotoxic effect, using an inverted microscope (Olympus Corp., Hamburg, Germany, Axio Observer, Carl Zeiss MicroImaging GmbH). Then the wells were washed in phosphate buffered saline (PBS) and stained using DAPI (4′,6-diamidino-2-phenylindole) and propidium iodide (Merck, Darmstadt, Germany). The study used the fact that DAPI is able to be combined with cellular DNA, permeate through the membrane of cell, rapidly enter the nucleus of living cells and bind with DNA to form a DAPI-DNA complex. […] In cell culture these are cells that are apoptotic or damaged by any physical or chemical agent. Therefore, if these two fluorochrome are given at the same time, DAPI will get to healthy cells faster, while propidium iodide will stain dead or dying cells. The calculation of the ratio of cells counted on a specific area, allows to determine the potency of a substance in inhibiting a specific biological function (IC50).

[8] = test system: LoVo (human colorectal adenocarcinoma); test: Cytotoxicity on LoVo cells, quantitative suspension test according to EN 14476; format: cell-based; conditions: observed 4 days, aqua media
Protocol: as §1, §2

[9] = test system: HeLa (human cervix carcinoma); test: Cytotoxicity on HeLa cells, quantitative suspension test according to EN 14476; format: cell-based; conditions: observed 4 days, aqua media
Protocol: as §1, §2

NHDF cells [10] = test: Cytotoxicity on normal human dermal fibroblasts, quantitative suspension test according to EN 14476 (DAPI/propidium iodide); format: cell-based; conditions: observed 4 days, aqua media
Protocol: as §1, §2

[11] = test system: A549 (human lung carcinoma); test: Cytotoxicity on A549 cells, quantitative suspension test according to EN 14476; format: cell-based; conditions: observed 4 days, aqua media
Protocol: as §1, §2

[12] = read-out: IC50 value, cytotoxic effect on A549 or HeLa lines, A549 or HeLa

In the case of `CS(C)=O.[Cl-].[Cl-].[Cl-].[Cl-].[Ru+3].c1c[nH+]c[nH]1.c1c[nH]cn1` [NAMI-A, Imidazolium-trans-tetrachloro(dimethylsulfoxide)imidazoleruthenium(III)], the “association constant with apo-Tf” value (apo-Tf) is listed as 12800 M⁻¹.

For [Cu2(sal-D,L-glu)2(imidazole)2], the IC50 (A549 or HeLa lines) is listed as greater than 100 µM.

In the case of `COc1ccc(P(CO)c2ccc(OC)cc2)cc1.Cc1ccc2ccc3ccc(C)nc3c2n1.[Cu+].[I-]` [[Cu(iodide)(dmphen)(P(p-OCH3-Ph)2CH2OH)]], the “concentration toxic for normal cell lines” value [1] is given as 32 to 43 µM and the IC50 (A549 cell line) is given as 62 µM.

In the case of “[Cu(iodide)(dmphen)(P(p-OCH3-Ph)2CH2-SarGly)]”, the IC50 (A549 cell line) is given as greater than 100 µM.

For `N.N.[Cl][Pt][Cl]` [Cisplatin], the IC50 [2] is given as 9.12 ± 0.005 µM, the IC50 (NHDF cells [3]) is given as 16.6 ± 2.1 µM and the IC50 [4] is given as 33.3 ± 4.2 µM. The IC50 [5] was 33.3 ± 4.2 µM and the IC50 [6] was 16.6 ± 3.1 µM.

`O=[N+]([O-])[O-].O=[N+]([O-])[O-].[Cu+2]` [Cu(NO3)2, reference compound] showed an IC50 [7] of 155 ± 23 µM, an IC50 [8] of 38.8 ± 5.8 µM and an IC50 [9] of 19.1 ± 2.9 µM. It also gave an IC50 (NHDF cells [10]) of 310 ± 47 µM and an IC50 [11] of 155 ± 23 µM.

In the case of [Cu(sal-5-met-L-glu)(H2O)]∙H2O, the IC50 (A549 or HeLa lines; [12]) is given as greater than 100 µM.

`Cc1ccc2ccc3ccc(C)nc3c2n1` [Dmphen, 2,9-dimethyl-1,10-phenanthroline] gave an IC50 ([8]; Homo sapiens, 96 h) of 360 ± 54 µM and an IC50 ([9]; Homo sapiens, 96 h) of 720 ± 108 µM.

For “[Cu2(sal-D,L-glu)2(isoquinoline)2]∙2EtOH”, the IC50 (A549 or HeLa lines; [12]) is given as greater than 100 µM.

In the case of [Cu(EtOH)2(imidazole)4], the IC50 (A549 or HeLa lines) is listed as greater than 100 µM.

For `[Cr+3].c1cnc2c(c1)ccc1cccnc12.c1cnc2c(c1)ccc1cccnc12.c1cnc2c(c1)ccc1cccnc12` [chromium(III)-phen], the “association constant, apo-Tf system” value (apo-Tf) is given as 150000 M⁻¹.
